Laboratory results published in US10392389B2, “Heterocyclic compounds for the inhibition of PASK” (BioEnergenix, LLC, priority 2012, dated 2019).

Columns and labels:
PASK = target: T1, PASK (UniProt #Q96RG2; human recombinant N-terminal GST tagged construct, residues 879-1323) (Homo sapiens, UniProt Q96RG2); assay: PASK ATP Radiochemical Assay; assay type: biochemical; conditions: 33P-ATP, Myelin Basic Protein substrate, read-out: IC50 Kinase Domain
T1 construct: N-terminal GST tagged construct, residues 879-1323; GST (N); host or cells: insect cells
How it was run: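 Insect-cell GST-PASK (residues 879-1323, 5 nM final) phosphorylating 20 μM myelin basic protein with ^33P-ATP (0.01 μCi/μl final). Buffer 20 mM HEPES pH 7.5, 10 mM MgCl2, 1% DMSO. Reaction ran 120 min at room temperature; P81 filter binding and scintillation counting.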

PASK (Invitrogen) = target: T2, PASK (Invitrogen) (Homo sapiens, UniProt Q96RG2); assay: PAS Kinase FRET Assay; assay type: biochemical; conditions: PAS kinase TR-FRET assay (665 nm/615 nm); read-out: IC50 Kinase Domain
T2 construct: IC50 Kinase Domain; purchased Invitrogen
How it was run: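 PASK phosphorylates a ULight-peptide with ATP in 50 mM HEPES, 10 mM MgCl2, 1 mM EGTA, 0.01% Tween-20, 2 mM DTT for 2 h at 25° C in the dark. Compounds are added as 4× serial dilutions (top 12×10^−5 M at 4×). After stopping, an Eu anti-phospho-substrate antibody is added for 1 h and TR-FRET is read at 665/615 nm.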

[1] = target: T3, CK2a2 (NP_001887; human full-length protein, GST tagged) (Homo sapiens, UniProt P19784); assay: Biochemical Assay for CK2 Activity; conditions: 33P-ATP radiochemical assay, CK2 sub [RRRDDDSDDD]
T3 construct: human full-length protein, GST tagged; GST; host or cells: insect cells
Description: Biochemical Assay for CK2 Activity
(§1) Purified CK2a2 (NP_001887; human full-length protein, GST tagged) from insect cells (final concentration 1.2 nM) is added to freshly prepared Base Reaction Buffer containing 20 mM Hepes (pH 7.5), 10 mM MgCl2, 1 mM EGTA, 0.02% Brij35, 0.02 mg/ml BSA, 0.1 mM Na3VO4, 2 mM DTT, 1% DMSO and CK2 sub [RRRDDDSDDD] (20 μM final). Test compounds in DMSO are then added and the mixture, followed by delivery of ^33P-ATP (specific activity 0.01 μCi/μl final) to initiate the reaction. The kinase reaction is incubated for 120 min at room temperature. The entire reaction mixture is washed through onto a P81 Phosphocellulose paper and washed three times for 10 minutes in 75 mM phosphoric acid and once in methanol prior to drying and scintillation counting.

[2] = target: T4, PIM1 (NP_002639; human full-length protein, 6×His tagged) (Homo sapiens, UniProt P11309); assay: Biochemical Assay for PIM1 Activity; conditions: 33P-ATP radiochemical assay, S6K/Rsk2 peptide 2 substrate
T4 construct: human full-length protein, 6×His tagged; 6xHis; host or cells: insect cells
Description: Biochemical Assay for PIM1 Activity
as §1, with “PIM1 (NP_002639;” for “CK2a2 (NP_001887;”, “6×His” for “GST”, “1.0” for “1.2”, “substrate S6K/Rsk2 peptide 2 [KKRNRTLTK]” for “CK2 sub [RRRDDDSDDD]”, “10” for “0.01”

[3] = In vivo pharmacokinetics in the Sprague Dawley rat; conditions: formulation as in Table 5
Description: Pharmacokinetics of a PASK Inhibitor
The in vivo pharmacokinetics of Examples 12, 17, 43, and 51 were evaluated in the Sprague Dawley rat. Blood samples were collected at 0.083, 0.25, 0.5, 1, 2, 4, 6, 8, and 24 hours and the samples were analyzed for test compounds content using LC/MS/MS. The data was submitted to pharmacokinetic analysis using WinNonLin software and the observed and calculated pharmacokinetic parameters are shown in Table 5 for each compound.

T2 sequence (Q96RG2 999-1251 limits assumed): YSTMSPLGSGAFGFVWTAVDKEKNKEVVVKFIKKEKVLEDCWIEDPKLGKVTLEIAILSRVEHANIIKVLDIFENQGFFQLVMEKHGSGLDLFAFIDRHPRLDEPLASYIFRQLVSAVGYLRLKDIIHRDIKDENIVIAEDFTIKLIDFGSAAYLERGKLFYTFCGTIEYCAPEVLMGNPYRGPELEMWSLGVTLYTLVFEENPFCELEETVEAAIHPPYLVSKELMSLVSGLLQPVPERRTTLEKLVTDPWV
T4 sequence (P11309 whole entry): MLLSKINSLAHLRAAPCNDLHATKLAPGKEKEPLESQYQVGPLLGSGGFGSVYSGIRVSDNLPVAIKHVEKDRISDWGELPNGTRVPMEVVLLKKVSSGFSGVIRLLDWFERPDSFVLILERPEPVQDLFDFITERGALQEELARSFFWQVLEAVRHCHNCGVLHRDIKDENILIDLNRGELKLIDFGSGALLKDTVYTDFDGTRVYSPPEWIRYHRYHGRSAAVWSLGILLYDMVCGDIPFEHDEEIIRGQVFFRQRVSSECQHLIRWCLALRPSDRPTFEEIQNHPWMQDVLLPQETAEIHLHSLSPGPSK
T3 sequence (P19784 whole entry): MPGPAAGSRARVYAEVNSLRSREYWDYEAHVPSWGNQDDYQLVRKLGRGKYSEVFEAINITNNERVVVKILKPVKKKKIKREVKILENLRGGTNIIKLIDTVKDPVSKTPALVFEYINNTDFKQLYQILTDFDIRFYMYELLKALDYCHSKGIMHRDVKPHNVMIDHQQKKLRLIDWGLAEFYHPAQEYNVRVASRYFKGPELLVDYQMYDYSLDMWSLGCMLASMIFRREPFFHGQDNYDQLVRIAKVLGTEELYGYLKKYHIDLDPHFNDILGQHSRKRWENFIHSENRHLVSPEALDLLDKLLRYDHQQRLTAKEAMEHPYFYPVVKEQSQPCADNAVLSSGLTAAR
T1 sequence (Q96RG2 879-1323, stated change not applied): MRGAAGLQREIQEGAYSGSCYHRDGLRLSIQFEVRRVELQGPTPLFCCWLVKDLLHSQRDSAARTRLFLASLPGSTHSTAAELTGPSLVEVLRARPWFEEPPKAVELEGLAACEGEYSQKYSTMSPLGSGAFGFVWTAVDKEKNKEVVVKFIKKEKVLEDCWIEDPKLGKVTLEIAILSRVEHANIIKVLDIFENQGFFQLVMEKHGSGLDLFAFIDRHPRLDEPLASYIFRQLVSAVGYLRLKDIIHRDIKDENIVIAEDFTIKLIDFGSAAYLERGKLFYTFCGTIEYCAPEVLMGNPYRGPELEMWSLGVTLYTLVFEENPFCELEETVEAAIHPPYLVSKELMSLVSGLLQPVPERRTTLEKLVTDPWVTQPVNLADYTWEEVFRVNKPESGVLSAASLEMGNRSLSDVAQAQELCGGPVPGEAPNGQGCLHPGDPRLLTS

Row | IC50 (PASK) [µM] | IC50 (PASK (Invitrogen)) [µM] | IC50 [1] [µM] | IC50 [2] [µM] | Cl (clearance) ([3]; IV, 3 mg/kg) [mL/min/kg] | Vss (volume of distribution) ([3]; IV, 3 mg/kg) [L/kg] | t1/2 (half-life) ([3]; IV, 3 mg/kg) [h] | F (oral bioavailability) ([3]; PO, 10 mg/kg) [%] | Tmax (Time to maximum blood concentration after an oral dose) ([3]; PO, 10 mg/kg) [min] | t1/2 (half-life) ([3]; PO, 10 mg/kg) [h] | Compound
1 | ≤ 10 | ≤ 10 | ≤ 10 | ≤ 10 | 6.19 | 0.61 | 8.3 | 42 | 240 | 2.12 | COc1cc(-c2cc(=O)n3ncc(-c4ncc(C)o4)c3[nH]2)ccc1Cl [Example 17, 5-(4-chloro-3-methoxyphenyl)-3-(5-methyl-1,3-oxazol-2-yl)-4H,7H-pyrazolo[1,5-a]pyrimidin-7-one]
2 |  | ≤ 10 |  |  | 23.9 | 0.719 | 1.62 | 44.7 | 30 | 3.35 | CCn1ncc2cc(-c3cc(=O)n4ncc(-c5nc(C)no5)c4[nH]3)ccc21 [Example 43, 5-(1-ethyl-1H-indazol-5-yl)-3-(3-methyl-1,2,4-oxadiazol-5-yl)-4H,7H-pyrazolo[1,5-a]pyrimidin-7-one]
3 |  | ≤ 10 |  |  | 8.76 | 0.35 | 3.75 | 46.5 | 30 | 2.38 | CCn1ncc2cc(-c3cc(=O)n4ncc(-c5ncc(C)o5)c4[nH]3)ccc21 [Example 12, 5-(1-ethyl-1H-indazol-5-yl)-3-(5-methyl-1,3-oxazol-2-yl)-4H,7H-pyrazolo[1,5-a]pyrimidin-7-one]
4 |  | ≤ 10 |  |  | 62 | 0.71 | 0.38 | 1.17 | 15 | 2.62 | COc1cc(-c2cc(=O)n3ncc(-c4ccnn4C)c3[nH]2)ccc1Cl [Example 51, 5-(4-chloro-3-methoxyphenyl)-3-(1-methyl-1H-pyrazol-5-yl)pyrazolo[1,5-a]pyrimidin-7(4H)-one]
